# Source: patent US8153390B2, “FRET-based binding assay” (Roche Palo Alto LLC, priority 2009, dated 2012)
# Tests used:
# [1] = target: T1, BTK-Btn (Homo sapiens, UniProt Q06187); experiment: TR-FRET competition binding assay, BTK-Btn with tracer AF647-staur; conditions: read-out: FRET IC50, 0.5 nM BTK-Btn, 0.5 nM Eu-strept
# [2] = target: T1, BTK-Btn; experiment: TR-FRET competition binding assay, BTK-Btn with tracer TR 178 (low tracer / low kinase); design: 6xHis (N); made in house; host or cells: Sf-9 insect cells (baculovirus)
# [3] = target: T2, BTK (Homo sapiens, UniProt Q06187); experiment: Enzymatic assay for BTK (Caliper, peptide substrate); assay type: biochemical; conditions: 5 nM BTK, 100 μM ATP; for IC50: […] peptide substrate, read-out: Enzyme IC50
# T2 construct: mixed with 26 μL of purified full length BTK (final concentration of 5 nM); purchased Invitrogen (Carlsbad, Calif.)
# [4] = 0.05 nM BTK-Btn and 0.5 nM TR 178
# [5] = 0.05 nM BTK-Btn and 0.5 nM TR 178, read-out: Low kinase IC50
# [6] = 0.05 nM TR 178 and 0.5 nM BTK-Btn
# [7] = 0.05 nM TR 178 and 0.5 nM BTK-Btn, read-out: Low tracer IC50
# T1 sequence (Q06187 whole entry): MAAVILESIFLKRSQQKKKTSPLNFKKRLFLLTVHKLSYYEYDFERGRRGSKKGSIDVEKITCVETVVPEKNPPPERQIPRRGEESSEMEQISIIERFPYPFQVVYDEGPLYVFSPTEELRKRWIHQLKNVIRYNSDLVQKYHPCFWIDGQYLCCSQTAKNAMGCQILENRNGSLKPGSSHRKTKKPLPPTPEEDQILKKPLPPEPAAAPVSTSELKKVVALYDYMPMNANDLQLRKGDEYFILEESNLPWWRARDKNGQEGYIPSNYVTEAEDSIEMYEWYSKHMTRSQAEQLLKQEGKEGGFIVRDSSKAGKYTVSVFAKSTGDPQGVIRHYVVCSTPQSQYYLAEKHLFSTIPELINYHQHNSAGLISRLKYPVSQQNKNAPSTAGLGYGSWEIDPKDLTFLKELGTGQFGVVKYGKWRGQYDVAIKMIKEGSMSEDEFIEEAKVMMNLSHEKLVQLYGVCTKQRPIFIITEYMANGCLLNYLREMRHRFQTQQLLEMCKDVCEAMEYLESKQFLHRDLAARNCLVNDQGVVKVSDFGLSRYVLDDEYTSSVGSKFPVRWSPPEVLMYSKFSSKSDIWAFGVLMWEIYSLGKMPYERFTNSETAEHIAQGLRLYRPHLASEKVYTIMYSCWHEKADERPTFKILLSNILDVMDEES
# T2 sequence (Q06187 whole entry): as above
SMILES,IC50 [1] [µM],"Low kinase nH [2, 4]","IC50 [2, 5] [µM]","Low tracer nH [2, 6]","IC50 [2, 7] [µM]",Enzyme nH (hill slope of dose response curve) [3],IC50 [3] [µM]
N#CC(C#N)=Cc1cc(O)c(O)c(O)c1 [Tyrphostin 25],48 ± 15,0.8 ± 0.1,130 ± 10,0.6 ± 0.2,45 ± 9,0.6 ± 0.1,> 100
"CC(O)=C(C#N)C(=O)Nc1cc(Br)ccc1Br [LFM-A13, alpha-cyano-beta-hydroxy-beta-methyl-N-(2,5-dibromophenyl)propenamide]",,1.3 ± 0.1,,0.6 ± 0.2,,1.1 ± 0.1,
CC(C)(C)n1nc(-c2ccc(Cl)cc2)c2c(N)ncnc21 [PP2],,1.8 ± 0.1,,0.9 ± 0.1,,1.1 ± 0.1,
Nc1ncnc2c1ncn2[C@@H]1O[C@H](COP(=O)(O)OP(=O)(O)O)[C@@H](O)[C@H]1O [ADP],46 ± 7,0.9 ± 0.1,200 ± 40,0.7 ± 0.2,40 ± 11,1.0 ± 0.1,> 100
